Where two headings read alike, the source gives them in different places.
How the values were obtained:
[1] = tested on: phosphorylation of CDK1 at Thr14 in HCC1806 cells; assay: Cell lysate AlphaLISA assay measuring inhibition of phosphorylation of CDK1 Thr14; format: cell-based; conditions: read-out: Cellular IC50
Experimental: (§1) Biochemical IC50 values were determined via ADP-Glo™ assay. Cellular IC50 values were determined via AlphaLISA assay.
Cell lysate AlphaLISA® assay measuring inhibition of phosphorylation of CDK1 Thr14. Inhibition of phosphorylation of CDK1 at Thr14 was determined using AlphaLISA® SureFire® Ultra™ Kit from Perkin Elmer (ALSU-PCDK1-A10K). HCC1806 cells were seeded at 2K cells per well (50 μl/well) in 384-well plates (Corning 3570) and stored overnight at 37° C. and 5% CO2. The following day, the compounds dissolved in DMSO were introduced to the cells and incubated for 4 hours at 37° C. and 5% CO2. The cells were then washed with PBS using Blue®Washer and 10 μl of lysis buffer containing protease inhibitor was added. The plate was placed on an orbital shaker (at 4° C.) for 30 minutes and stored overnight at −80° C. for complete lysing. The next day, the plates were thawed at room temperature for at least 30 min. Reagents were prepared in a dimmed light setting (<100 lumens). The assay was run by first adding 5 μl of the acceptor mix (reaction buffer 1: reaction buffer 2: activation buffer: acceptor beads 47:47:4:2), covering the plate with foil, shaking for 2 minutes and incubating at RT for 60 minutes. The donor mix (dilution buffer: donor beads 47:3) was then added at 5 μl per well, placed on the shaker for 2 minutes and incubated at RT for 60 minutes before reading the plates on a PHERAstar® plate reader. The results were normalized to DMSO (0% Inhibition) and 3 μM of reference compound.

PKMYT1 = molecular target: T1, PKMYT1 (Homo sapiens, UniProt Q99640); assay: ADP-Glo PKMYT1 ATP-depletion assay; conditions: 50 nM PKMYT1, 13.3 nM CDK1, read-out: Biochemical IC50
T1 construct: PKMYT1 (93 kD, full length, N-terminal GST tag from Signal Chem); GST (N); purchased Signal Chem
T1 sequence (Q99640 1-499): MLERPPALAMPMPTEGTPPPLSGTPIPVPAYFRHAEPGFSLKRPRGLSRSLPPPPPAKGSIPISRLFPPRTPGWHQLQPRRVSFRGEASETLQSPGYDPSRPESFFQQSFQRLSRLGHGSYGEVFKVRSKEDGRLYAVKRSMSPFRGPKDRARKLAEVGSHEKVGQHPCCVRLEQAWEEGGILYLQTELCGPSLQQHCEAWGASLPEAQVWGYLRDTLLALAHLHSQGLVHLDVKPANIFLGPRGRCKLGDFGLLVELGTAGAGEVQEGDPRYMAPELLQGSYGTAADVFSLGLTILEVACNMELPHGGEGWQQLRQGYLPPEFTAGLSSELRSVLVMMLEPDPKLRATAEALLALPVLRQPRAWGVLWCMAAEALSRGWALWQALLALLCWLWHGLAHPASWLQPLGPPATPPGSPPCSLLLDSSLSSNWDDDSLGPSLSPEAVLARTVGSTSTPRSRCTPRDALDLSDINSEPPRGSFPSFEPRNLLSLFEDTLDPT
Experimental: as §1
ADP-Glo™ PKMYT1 ATP-depletion assay. The activity of PKMYT1 is measured using a luciferase-luciferin based ATP detection reaction to quantify ATP depletion resulting from kinase-catalyzed phosphoryl transfer to CDK1 or autophosphorylation of PKMYT1. The ADP generated as a byproduct of the reaction is converted to ATP and used to drive a luciferase reaction. Test compounds were dissolved in DMSO and dispensed into Corning 3824 384-well plates prior to the experiment such that the final DMSO concentration was <1%. To the compounds was added 3 μL of PKMYT1 (93 kD, full length, N-terminal GST tag from Signal Chem). The reaction was started by the addition of 2 μL of CDK1 (58 kDa, full length, N-terminal GST tag from Signal Chem) and ATP in assay buffer (50 mM Hepes, 40 mM NaCl, 10 mM MgCl2, 1 mM DTT, 0.1 mg/mL BSA, 2.5 mM MnCl2). Final assay concentrations were 50 nM PKMYT1, 13.3 nM CDK1, and 88 µM ATP. Plates were centrifuged for 1 minute at 1000 RPM and incubated at RT for 120 minutes. After the incubation period, ADP-Glo™ reagent was added and the plates were incubated for another 40 minutes before finally adding the kinase detection reagent. 30 minutes after the addition, plates were placed on a PHERAstar® plate reader and read using the Luminescence Protocol, integration time at 0.5 seconds.

SMILES | IC50 ([1]; 4 hours) [nM] | IC50 (PKMYT1) [nM] | IC50 ([1]; Homo sapiens, HCC1806, 4 h) [nM]
NC(=O)c1nc2cccnc2c(-c2c(F)ccc3[nH]ncc23)c1N (atropisomer, axis not shown) [Compound 245] | ≥ 5000 | ≥ 5000 | 
NC(=O)c1cc2nccnc2c(-c2c(Cl)ccc3[nH]ncc23)c1N (atropisomer, axis not shown) [Compound 246] | 500 to 1000 | 50 to 500 | 
NC(=O)c1cc2nccnc2c(-c2c(Cl)ccc3[nH]ncc23)c1N (atropisomer, axis not shown) [Compound 247] | ≥ 5000 | 1000 to 5000 | 
Cc1c(O)cccc1-c1c(N)c(C(N)=O)cc2c1ncc(=O)n2C (atropisomer, axis not shown) [Compound 283] | ≥ 5000 | 1000 to 5000 | 
Cc1c(O)cccc1-c1c(N)c(C(N)=O)cc2c1ncc(=O)n2C (atropisomer, axis not shown) [Compound 284] | ≥ 5000 | 50 to 500 | 
Cc1cc(O)c(C)c(-c2c(N)c(C(N)=O)nc3cccnc23)c1 (atropisomer, axis not shown) [Compound 285] |  | ≥ 5000 | ≥ 5000
Cc1cc(O)c(C)c(-c2c(N)c(C(N)=O)nc3cccnc23)c1 (atropisomer, axis not shown) [Compound 286] | ≥ 5000 | 500 to 1000 | 
Cc1ccc(-c2c(N)c(C(N)=O)nc3cccnc23)c(C)c1O (atropisomer, axis not shown) [Compound 287] | ≥ 5000 | ≥ 5000 | 
Cc1ccc(-c2c(N)c(C(N)=O)nc3cccnc23)c(C)c1O (atropisomer, axis not shown) [Compound 288] | 50 to 500 | < 50 | 
Cc1c(O)cc(Cl)cc1-c1c(N)c(C(N)=O)nc2cccnc12 (atropisomer, axis not shown) [Compound 289] | ≥ 5000 | 1000 to 5000 | 
Cc1c(O)cc(Cl)cc1-c1c(N)c(C(N)=O)nc2cccnc12 (atropisomer, axis not shown) [Compound 290] | 50 to 500 | 50 to 500 | 
NC(=O)c1nc2c(c(-c3cc(O)cnc3F)c1N)NCCC2 (atropisomer, axis not shown) [Compound 294] |  | 1000 to 5000 | ≥ 5000
Cc1c(-c2c(N)c(C(N)=O)cc3nccnc23)ccc(F)c1O (atropisomer, axis not shown) [Compound 295] | 50 to 500 | < 50 | 
NC(=O)c1nc2c(c(-c3cc(O)cnc3F)c1N)NCCC2 (atropisomer, axis not shown) [Compound 296] | ≥ 5000 | ≥ 5000 | 
Cc1ccc2[nH]nc(F)c2c1-c1c(N)c(C(N)=O)cc2nccnc12 (atropisomer, axis not shown) [Compound 299] | ≥ 5000 | ≥ 5000 | 
Cc1ccc2[nH]nc(F)c2c1-c1c(N)c(C(N)=O)cc2nccnc12 (atropisomer, axis not shown) [Compound 300] | 1000 to 5000 | 50 to 500 | 
Cc1ccc(O)c(C)c1-c1c(N)c(C#N)cc2nccnc12 (atropisomer, axis not shown) [Compound 301] | ≥ 5000 | ≥ 5000 | 
Cc1ccc(O)c(C)c1-c1c(N)c(C#N)cc2nccnc12 (atropisomer, axis not shown) [Compound 302] | ≥ 5000 | 1000 to 5000 | 

SMILES | IC50 ([1]; 4 hours) [nM] | IC50 (PKMYT1) [nM] | IC50 ([1]; Homo sapiens, HCC1806, 4 h) [nM]
NC(=O)c1nc2cccnc2c(-c2cccc3[nH]nc(F)c23)c1N (atropisomer, axis not shown) [Compound 304] | ≥ 5000 | ≥ 5000 | 
NC(=O)c1nc2cccnc2c(-c2cccc3[nH]nc(F)c23)c1N (atropisomer, axis not shown) [Compound 305] | 1000 to 5000 | 50 to 500 | 
Cc1c(-c2c(N)c(C(N)=O)cc3nccnc23)ccc(F)c1O (atropisomer, axis not shown) [Compound 307] | ≥ 5000 | 1000 to 5000 | 
Cc1c(-c2c3c(cc4nccnc24)C(=O)NC(C)(C)N3)ccc(F)c1O (atropisomer, axis not shown) [Compound 312] |  | ≥ 5000 | ≥ 5000
Cc1c(-c2c3c(cc4nccnc24)C(=O)NC(C)(C)N3)ccc(F)c1O (atropisomer, axis not shown) [Compound 313] | ≥ 5000 | ≥ 5000 | 
COc1ccnc2c(-c3cccc(O)c3C)c(N)c(C(N)=O)cc12 (atropisomer, axis not shown) [Compound 325] | 1000 to 5000 | 1000 to 5000 | 
COc1ccnc2c(-c3cccc(O)c3C)c(N)c(C(N)=O)cc12 (atropisomer, axis not shown) [Compound 327] | < 50 | < 50 | 
CCn1ccc2cc(C(N)=O)c(N)c(-c3cccc(O)c3C)c2c1=O (atropisomer, axis not shown) [Compound 328] | ≥ 5000 | ≥ 5000 | 
CCn1ccc2cc(C(N)=O)c(N)c(-c3cccc(O)c3C)c2c1=O (atropisomer, axis not shown) [Compound 329] | 50 to 500 | < 50 | 
Cc1c(O)cccc1-c1c(N)c(C(N)=O)cc2ccn(C)c(=O)c12 (atropisomer, axis not shown) [Compound 336] | 50 to 500 | < 50 | 
Cc1c(O)cccc1-c1c(N)c(C(N)=O)cc2ccn(C)c(=O)c12 (atropisomer, axis not shown) [Compound 337] | 1000 to 5000 | 500 to 1000 | 
Cc1ccc(O)c(C)c1-c1c(N)c(C(N)=O)nc2ccc(F)cc12 (atropisomer, axis not shown; (M)) [Compound 23, (M)-3-Amino-6-fluoro-4-(3-hydroxy-2,6-dimethylphenyl) quinoline-2-carboxamide] | 1000 to 5000 | 50 to 500 | 
Cc1ccc(O)c(C)c1-c1c(N)c(C(N)=O)nc2ccccc12 (atropisomer, axis not shown; (M)) [Compound 44, (M)-3-Amino-4-(3-hydroxy-2,6-dimethylphenyl)quinoline-2-carboxamide] | 1000 to 5000 | 50 to 500 | 
Cc1c(O)cccc1-c1c(N)c(C(N)=O)cc2ncccc12 (atropisomer, axis not shown; (M)) [Compound 68, (M)-6-Amino-5-(3-hydroxy-2-methylphenyl)quinoline-7-carboxamide] | 500 to 1000 | 50 to 500 | 
Cc1c(O)cccc1-c1c(N)c(C(N)=O)cc2nc(C(F)(F)F)cnc12 (atropisomer, axis not shown; (M)) [Compound 103, (M)-7-Amino-8-(3-hydroxy-2-methylphenyl)-3-(trifluoromethyl)quinoxaline-6-carboxamide] | ≥ 5000 | 1000 to 5000 | 
Cc1ccc(O)cc1-c1c(N)c(C(N)=O)cc2nccnc12 (atropisomer, axis not shown; (M)) [Compound 116, (M)-7-Amino-8-(5-hydroxy-2-methylphenyl)quinoxaline-6-carboxamide] | 500 to 1000 | 50 to 500 | 
Cc1ccc(O)c(C)c1-c1c(N)c(C(N)=O)nc2ccc(F)cc12 (atropisomer, axis not shown; (P)) [Compound 24, (P)-3-amino-6-fluoro-4-(3-hydroxy-2,6-dimethylphenyl) quinoline-2-carboxamide] | ≥ 5000 | 1000 to 5000 | 
